Measured values: patent publication US11802111B2, “Cyclobutyl amide monoacylglycerol lipase modulators” (Janssen Pharmaceutica NV, priority 2020, dated 2023)

biological target: human MGL from HeLa cells (Homo sapiens (Human), UniProt Q99685); test: MGL in vitro activity assay ([glycerol-1,3-3H]-oleoyl glycerol hydrolysis, activated carbon filtration); assay type: biochemical; conditions: 300 nM [Glycerol-1,3-3H]-oleoyl glycerol, one hour
Method in brief: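 Activity measured as tritium in the flow-through after activated carbon filtration of a 1 h reaction containing 300 nM 3H-oleoyl glycerol, compound and HeLa-derived human MGL. Compounds screened at 10 μM; IC50 series start at an empirically chosen highest concentration.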

Chain of human MGL from HeLa cells (Q99685 whole entry): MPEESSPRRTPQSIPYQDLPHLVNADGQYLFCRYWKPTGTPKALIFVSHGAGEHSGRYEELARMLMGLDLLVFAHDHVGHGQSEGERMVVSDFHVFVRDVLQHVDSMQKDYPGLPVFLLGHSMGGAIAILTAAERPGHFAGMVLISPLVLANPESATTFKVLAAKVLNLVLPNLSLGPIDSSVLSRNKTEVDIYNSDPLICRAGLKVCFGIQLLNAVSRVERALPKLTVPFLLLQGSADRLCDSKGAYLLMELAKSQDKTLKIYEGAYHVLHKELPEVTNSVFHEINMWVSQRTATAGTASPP

Row | Structure (SMILES) | IC50 [nM]
1 | C[C@]1(O)C[C@@H](C(=O)N2CC3(CC(c4ccc5cnccc5c4)C3)C2)C1 [Example 31, ((1s,3s)-3-Hydroxy-3-methylcyclobutyl)(6-(isoquinolin-6-yl)-2-azaspiro[3.3]heptan-2-yl)methanone] | 1600
2 | C[C@]1(O)C[C@@H](C(=O)N2CC3(CC(c4cccc(N5CCCC5)c4)C3)C2)C1 [Example 32, ((1s,3s)-3-Hydroxy-3-methylcyclobutyl)(6-(3-(pyrrolidin-1-yl)phenyl)-2-azaspiro[3.3]heptan-2-yl)methanone] | 178
3 | Cc1cc(C2CC3(C2)CN(C(=O)[C@H]2C[C@@](C)(O)C2)C3)ccc1C(F)(F)F [Example 33, ((1s,3s)-3-Hydroxy-3-methylcyclobutyl)(6-(3-methyl-4-(trifluoromethyl)phenyl)-2-azaspiro[3.3]heptan-2-yl)methanone] | 246
4 | CC(C)(C)c1cccc(C2CC3(C2)CN(C(=O)[C@H]2C[C@@](C)(O)C2)C3)n1 [Example 34, (6-(6-(tert-Butyl)pyridin-2-yl)-2-azaspiro[3.3]heptan-2-yl)((1s,3s)-3-hydroxy-3-methylcyclobutyl)methanone] | 25
5 | CC(C)c1cccc(C2CC3(CCN(C(=O)[C@H]4C[C@@](C)(O)C4)C3)C2)c1 (stereo partly shown) [Example 36, ((1s,3s)-3-Hydroxy-3-methylcyclobutyl)(2-(3-isopropylphenyl)-6-azaspiro[3.4]octan-6-yl)methanone] | 153
6 | C[C@]1(O)C[C@@H](C(=O)N2CC3(CCC(c4ccccc4)CC3)C2)C1 [Example 37, ((1s,3s)-3-Hydroxy-3-methylcyclobutyl)(7-phenyl-2-azaspiro[3.5]nonan-2-yl)methanone] | 58
7 | C[C@]1(O)C[C@@H](C(=O)N2CC3(CC[C@H](c4ccc(C5CC5)cc4)C3)C2)C1 [Example 50, ((S)-6-(4-Cyclopropylphenyl)-2-azaspiro[3.4]octan-2-yl)((1s,3R)-3-hydroxy-3-methylcyclobutyl)methanone] | 9.7
8 | C[C@]1(O)C[C@@H](C(=O)N2CC3(CC[C@@H](c4ccc(C5CC5)cc4)C3)C2)C1 [Example 51, ((R)-6-(4-Cyclopropylphenyl)-2-azaspiro[3.4]octan-2-yl)((1s,3S)-3-hydroxy-3-methylcyclobutyl)methanone] | 5.5
9 | Cc1cc([C@@H]2CCC3(C2)CN(C(=O)[C@H]2C[C@@](C)(O)C2)C3)ccc1Cl [Example 69, ((R)-6-(4-Chloro-3-methylphenyl)-2-azaspiro[3.4]octan-2-yl)((1s,3S)-3-hydroxy-3-methylcyclobutyl)methanone] | 15
10 | Cc1cc([C@H]2CCC3(C2)CN(C(=O)[C@H]2C[C@@](C)(O)C2)C3)ccc1Cl [Example 70, ((S)-6-(4-Chloro-3-methylphenyl)-2-azaspiro[3.4]octan-2-yl)((1s,3R)-3-hydroxy-3-methylcyclobutyl)methanone] | 17
11 | CC(C)(C)c1cccc(C2CC3(CCN(C(=O)[C@H]4C[C@@](C)(O)C4)C3)C2)c1 (stereo partly shown) [Example 89, (2-(3-(tert-Butyl)phenyl)-6-azaspiro[3.4]octan-6-yl)((1s,3s)-3-hydroxy-3-methylcyclobutyl)methanone] | 126
12 | COc1cc(C2CCC3(CC2)CN(C(=O)[C@H]2C[C@@](C)(O)C2)C3)ccc1F [Example 103, (7-(4-Fluoro-3-methoxyphenyl)-2-azaspiro[3.5]nonan-2-yl)((1s,3s)-3-hydroxy-3-methylcyclobutyl)methanone] | 99
13 | COc1cc(F)cc(C2CCC3(CC2)CN(C(=O)[C@H]2C[C@@](C)(O)C2)C3)c1 [Example 104, (7-(3-Fluoro-5-methoxyphenyl)-2-azaspiro[3.5]nonan-2-yl)((1s,3s)-3-hydroxy-3-methylcyclobutyl)methanone] | 26
14 | COc1ccc(C2CCC3(CC2)CN(C(=O)[C@H]2C[C@@](C)(O)C2)C3)cc1C [Example 105, ((1s,3s)-3-Hydroxy-3-methylcyclobutyl)(7-(4-methoxy-3-methylphenyl)-2-azaspiro[3.5]nonan-2-yl)methanone] | 68
15 | COc1cccc(C2CCC3(CC2)CN(C(=O)[C@H]2C[C@@](C)(O)C2)C3)c1C [Example 106, ((1s,3s)-3-Hydroxy-3-methylcyclobutyl)(7-(3-methoxy-2-methylphenyl)-2-azaspiro[3.5]nonan-2-yl)methanone] | 30
16 | COc1cc(C2CCC3(CC2)CN(C(=O)[C@H]2C[C@@](C)(O)C2)C3)ccc1C(F)(F)F [Example 113, ((1s,3s)-3-Hydroxy-3-methylcyclobutyl)(7-(3-methoxy-4-(trifluoromethyl)phenyl)-2-azaspiro[3.5]nonan-2-yl)methanone] | 37
17 | COc1ccc(C2CCC3(CC2)CN(C(=O)[C@H]2C[C@@](C)(O)C2)C3)cc1C(F)(F)F [Example 114, ((1s,3s)-3-Hydroxy-3-methylcyclobutyl)(7-(4-methoxy-3-(trifluoromethyl)phenyl)-2-azaspiro[3.5]nonan-2-yl)methanone] | 65

Row | Structure (SMILES) | IC50 [nM]
18 | CN(C)c1cc(C2CCC3(CC2)CN(C(=O)[C@H]2C[C@@](C)(O)C2)C3)ccc1C(F)(F)F [Example 115, (7-(3-(Dimethylamino)-4-(trifluoromethyl)phenyl)-2-azaspiro[3.5]nonan-2-yl)((1s,3s)-3-hydroxy-3-methylcyclobutyl)methanone] | 17
19 | CC(C)(C)c1cccc(C2CCC3(CC2)CN(C(=O)[C@H]2C[C@@](C)(O)C2)C3)n1 [Example 116, (7-(6-(tert-Butyl)pyridin-2-yl)-2-azaspiro[3.5]nonan-2-yl)((1s,3s)-3-hydroxy-3-methylcyclobutyl)methanone] | 4.4
20 | COc1cccc(C2CCC3(CC2)CN(C(=O)[C@H]2C[C@@](C)(O)C2)C3)n1 [Example 117, ((1s,3s)-3-Hydroxy-3-methylcyclobutyl)(7-(6-methoxypyridin-2-yl)-2-azaspiro[3.5]nonan-2-yl)methanone] | 420
21 | COc1ccc(C2CCC3(CC2)CN(C(=O)[C@H]2C[C@@](C)(O)C2)C3)cc1C(C)(C)C [Example 118, (7-(3-(tert-Butyl)-4-methoxyphenyl)-2-azaspiro[3.5]nonan-2-yl)((1s,3s)-3-hydroxy-3-methylcyclobutyl)methanone] | 20
22 | COc1cc(C2CCC3(CC2)CN(C(=O)[C@H]2C[C@@](C)(O)C2)C3)cc(C(F)(F)F)c1 [Example 119, ((1s,3s)-3-Hydroxy-3-methylcyclobutyl)(7-(3-methoxy-5-(trifluoromethyl)phenyl)-2-azaspiro[3.5]nonan-2-yl)methanone] | 12
23 | CCOc1cc(C2CCC3(CC2)CN(C(=O)[C@H]2C[C@@](C)(O)C2)C3)cc(C(F)(F)F)c1 [Example 120, (7-(3-Ethoxy-5-(trifluoromethyl)phenyl)-2-azaspiro[3.5]nonan-2-yl)((1s,3s)-3-hydroxy-3-methylcyclobutyl)methanone] | 141
24 | CCc1cc(C)cc(C2CCC3(CC2)CN(C(=O)[C@H]2C[C@@](C)(O)C2)C3)c1 [Example 121, (7-(3-Ethyl-5-methylphenyl)-2-azaspiro[3.5]nonan-2-yl)((1s,3s)-3-hydroxy-3-methylcyclobutyl)methanone] | 7.4
25 | Cn1ncc2cc(C3CCC4(CC3)CN(C(=O)[C@H]3C[C@@](C)(O)C3)C4)ccc21 [Example 122, ((1s,3s)-3-Hydroxy-3-methylcyclobutyl)(7-(1-methyl-1H-indazol-5-yl)-2-azaspiro[3.5]nonan-2-yl)methanone] | 143
26 | CN(C)c1cc(C2CCC3(CC2)CN(C(=O)[C@H]2C[C@@](C)(O)C2)C3)cc(C(F)(F)F)c1 [Example 123, (7-(3-(Dimethylamino)-5-(trifluoromethyl)phenyl)-2-azaspiro[3.5]nonan-2-yl)((1s,3s)-3-hydroxy-3-methylcyclobutyl)methanone] | 27
27 | C[C@]1(O)C[C@@H](C(=O)N2CC3(CCC(c4ccc5ccccc5n4)CC3)C2)C1 [Example 124, ((1s,3s)-3-Hydroxy-3-methylcyclobutyl)(7-(quinolin-2-yl)-2-azaspiro[3.5]nonan-2-yl)methanone] | 227
28 | C[C@]1(O)C[C@@H](C(=O)N2CC3(CCC(c4ccc5c(c4)CCC5)CC3)C2)C1 [Example 127, (7-(2,3-Dihydro-1H-inden-5-yl)-2-azaspiro[3.5]nonan-2-yl)((1s,3s)-3-hydroxy-3-methylcyclobutyl)methanone] | 14
29 | COc1cc(C)cc(C2CCC3(CC2)CN(C(=O)[C@H]2C[C@@](C)(O)C2)C3)c1 [Example 128, ((1s,3s)-3-Hydroxy-3-methylcyclobutyl)(7-(3-methoxy-5-methylphenyl)-2-azaspiro[3.5]nonan-2-yl)methanone] | 30
30 | COc1cc(C2CCC3(CC2)CN(C(=O)[C@H]2C[C@@](C)(O)C2)C3)ccc1C [Example 129, ((1s,3s)-3-Hydroxy-3-methylcyclobutyl)(7-(3-methoxy-4-methylphenyl)-2-azaspiro[3.5]nonan-2-yl)methanone] | 25
31 | CC(C)c1ccc(C2CCC3(CC2)CN(C(=O)[C@H]2C[C@@](C)(O)C2)C3)cc1 [Example 130, ((1s,3s)-3-Hydroxy-3-methylcyclobutyl)(7-(4-isopropylphenyl)-2-azaspiro[3.5]nonan-2-yl)methanone] | 17
32 | COc1cccc(C2CCC3(CC2)CN(C(=O)[C@H]2C[C@@](C)(O)C2)C3)c1 [Example 131, ((1s,3s)-3-Hydroxy-3-methylcyclobutyl)(7-(3-methoxyphenyl)-2-azaspiro[3.5]nonan-2-yl)methanone] | 32
33 | CCOc1cccc(C2CCC3(CC2)CN(C(=O)[C@H]2C[C@@](C)(O)C2)C3)c1 [Example 132, (7-(3-Ethoxyphenyl)-2-azaspiro[3.5]nonan-2-yl)((1s,3s)-3-hydroxy-3-methylcyclobutyl)methanone] | 41
34 | CC(C)c1cccc(C2CCC3(CC2)CN(C(=O)[C@H]2C[C@@](C)(O)C2)C3)c1 [Example 133, ((1s,3s)-3-Hydroxy-3-methylcyclobutyl)(7-(3-isopropylphenyl)-2-azaspiro[3.5]nonan-2-yl)methanone] | 8.2
